A melting point compilation (Tetko et al.; mined from patent text by program, amines drawn as free bases though some values may be those of a salt)

Point of comparison: `CCOCCOc1ccc(OCC(O)CNCCNC(=O)N2CCOCC2)c(Br)c1` (configuration not stated), melting point 98 °C. Against it:
- C=C(Sc1ccc(Br)cc1)S(=O)(=O)c1cccc([N+](=O)[O-])c1 — higher, 109 to 111 °C
- CC[C@H](COC)n1cc(Br)nc(N2CCc3cc(Cl)cc(Cl)c32)c1=O — higher, 150 to 152 °C
- Cn1c(C(=O)N[C@H]2CCCC[C@H]2C(=O)N[C@@H](CCC(N)=O)C(N)=O)cc2ccccc21 — higher, 234 to 235 °C
- CCOc1ccc(CC(=O)OCc2ccc(C#N)cc2)cc1 — lower, 59 °C
- COP(=O)(CNC(=O)[C@H](C)NC(=O)[C@H](C)NC(=O)OCc1ccccc1)OC — higher, 106 to 108 °C
- CCC1(Cc2ccccc2)CCNC1=O (configuration not stated) — lower, 89 to 90 °C
- c1ccc(CN2CCN(c3nc4c(c(N5CCOCC5)n3)SCCC4)CC2)cc1 — higher, 125 °C
- O=CNc1nc2c(s1)-c1nc(-c3ccccc3)ncc1CC2 — higher, 304 to 306 °C
- CS(=O)(=O)c1ccc(C2=CC(=O)C3(CCOCC3)O2)cc1 — higher, 163 to 165 °C
- COC(=O)C1N2C(=O)C(N3C(=O)c4ccccc4C3=O)C2SCC1(C)O (configuration not stated) — higher, 203 °C
- O=C(NNS(=O)(=O)c1ccccc1)c1cc2cccc(Cl)c2o1 — higher, 179 to 180 °C
- COc1cc2c(cc1O)CCN(c1cc(N)c3cc(OC)c(OC)cc3n1)C2 — higher, 250 to 251 °C
- CCCS(=O)(=O)c1ccc2c(c1)C(=O)CC2 — higher, 100 °C
- CC(C)(C)C(O)Cn1ncn(-c2ccc(N3CCN(c4ccc(O[Si](C)(C)C(C)(C)C)cc4)CC3)cc2)c1=O (configuration not stated) — higher, 196 °C
- NC(=O)NN=Cc1ccc(Oc2ccc3c(c2)CCC3)cc1 — higher, 218 to 220 °C
- Cc1ccnc(N2C(=S)SCC2(C)O)c1 (configuration not stated) — higher, 119 °C
- CCOC(=O)C1=C(C)NC(=NC#N)N(C(=O)OCC)C1c1cccc([N+](=O)[O-])c1 (configuration not stated) — higher, 174 to 175 °C
- O=C(CSc1nc[nH]n1)c1ccccc1 — higher, 119 to 120 °C
- Cn1ncc(N2CCCC2)c(-c2ccccc2C=O)c1=O — higher, 140 to 141 °C
- Cn1ncc(C(=O)c2ccc(Cl)cc2Cl)c1Cl — lower, 81 to 83 °C
- OCc1cn(-c2ccc(-c3ccccc3)cc2)cn1 — higher, 173 to 177 °C
- CC(=O)NC[C@H]1CN(c2cc(F)c(N3CCC(n4nnc(N5CCOCC5)n4)CC3)c(F)c2)C(=O)O1 — higher, 232 to 234 °C
- CC(=O)c1cc2c(Br)cccc2n1S(=O)(=O)c1ccccc1 — higher, 142 to 146 °C
- C1=CC(n2nc(-c3ccc4ccccc4c3)cc2-c2ccccc2)(n2nc(-c3ccc4ccccc4c3)cc2-c2ccccc2)CC=C1c1ccccc1 — higher, 287 °C
- O=C1N=C(N2CCCC2)SC1=Cc1ccc(-c2cc(F)c(O)c(C34CC5CC(CC(C5)C3)C4)c2)s1 — higher, 312 to 315 °C
- N#Cc1cc(-c2ccoc2)c2ccc(OCc3cccc(-c4ccc(Cl)cc4)n3)cc2c1 — higher, 174 to 177 °C
- COc1ccccc1-c1n[nH]c2c(Cl)cc(C)nc12 — higher, 184 to 190 °C
- COc1cc(C2CCN(C(=O)CN(C)C)CC2)ccc1Nc1ncc2ccc(-c3ccccc3OC)n2n1 — lower, 78 to 87 °C
- N#Cc1nn(-c2c(Cl)cc(C(F)(F)F)cc2Cl)cc1-c1ccoc1 — higher, 139 °C
- CCCc1nc(S(=O)(=O)N(c2c(Cl)cccc2Cl)S(=O)(=O)c2nc(CCC)n(-c3ccccc3)n2)nn1-c1ccccc1 — higher, 262 to 264 °C
- CCCCOCCOc1ccc(-c2cnc(N3CC(C)C(C)C3)c(/C=C(\C)C(=O)O)c2)cc1 (configuration not stated) — lower, 90 to 92 °C
- Fc1ccc(-c2nc(SCCCCSc3nc(-c4ccc(F)cc4)c(-c4ccc(F)cc4)[nH]3)[nH]c2-c2ccc(F)cc2)cc1 — higher, 172 to 174 °C
- O=c1[nH]c2cccnc2n1-c1ccncc1 — higher, 265 to 267 °C
- NC(=O)c1cc(-n2cccn2)ccc1N — higher, 147 to 149 °C
- COCCNC(=O)c1cc2c(nc(C)n2C)c2c1CCC(c1ccccc1)O2 (configuration not stated) — higher, 254 to 256 °C
- CC1CC(=O)NN=C1c1ccc(NC(=O)C2(C)CC2)cc1 (configuration not stated) — higher, 235 to 237 °C
- OC(CCCN1CC=C(c2ccc(Cl)cc2)CC1)c1ccc(Cc2ccc(Cl)cc2)cc1 (configuration not stated) — higher, 104 to 105 °C
- CC(=O)NC12Oc3cc(C(C)C)ccc3C1(O)C(=O)c1c(N)cccc12 (configuration not stated) — higher, 278 to 280 °C
- Cc1nnc2n1-c1ccccc1C(c1ccc(Cl)cc1)=NC2NN(C(=O)NN)c1ccccc1 (configuration not stated) — higher, 175 to 177 °C
- CCn1c(=N)c(F)cn(S(=O)(=O)c2ccccc2)c1=O — higher, 163 to 166 °C
- N#CCCNC(=O)c1n[nH]cc1NC(=O)c1ccoc1 — higher, 250 to 252 °C
- CNc1cc(N2CCC(c3ccccc3)CC2)nc(C)n1 — higher, 186 to 188 °C
- COC(=O)CC1CCCC2CC(=O)N(OCC(=O)C(CC(=O)O)NC(=O)OCc3ccccc3)C12 (configuration not stated) — lower, 55 to 58 °C
- O=S(=O)(Nc1cccc(Cl)c1)c1cc(S(=O)(=O)Nc2cccc(Cl)c2)c2cc(O)ccc2c1 — higher, 206 to 208 °C
- Clc1cccc2[nH]c3c4ccccc4nc-3c(Cl)c12 — higher, 275 to 277 °C
- CC(C)(C)OC(=O)COc1ccc(-c2c(Cl)c(CN3C(=O)CCC3=O)nc3sc4c(c23)CCS(=O)C4)cc1 (configuration not stated) — higher, 175 to 176 °C
- O=C(O)C(=Cc1c[nH]c2ncccc12)c1ccccc1 — higher, > 230 °C
- COC(=O)COc1ccc(CC2SC(=O)N(C(c3ccccc3)(c3ccccc3)c3ccccc3)C2=O)cc1 (configuration not stated) — higher, 158 to 162 °C
- COc1ccc(Oc2ccc3c(c2)OCC(=O)N3)cc1 — higher, 163 to 164 °C
- COc1ccc2c3c([nH]c2c1)CCC(N(C)C)C3 (configuration not stated) — higher, 100 to 105 °C
- FC(F)(F)Oc1ccc2nc(-c3ccc(Cl)cc3)[nH]c2c1 — higher, 190 to 192 °C
- OC1CSC(Oc2ccc(-c3cnccc3F)nc2-c2cnccc2F)C(O)C1O (configuration not stated) — higher, 209 °C
- Cc1c(Cl)cccc1S(=O)(=O)Nc1ccc2occ(C)c2c1 — higher, 120 °C
- COC1Cc2ccc(F)cc2/C1=C/C(N)=O (configuration not stated) — higher, 128 to 130 °C
- NS(=O)(=O)c1cccc(-c2cccc(-c3nc(-c4ccc(Cl)cc4)cc(C(F)(F)F)n3)c2)c1 — higher, 165 °C
- C=C(C)C(=O)OCCCCOc1ccc(C(=O)Cl)cc1 — lower, 30 to 31 °C
- CN(C)C=CC(=O)c1ccc(C(=O)N2Cc3ccnn3Cc3ccccc32)cc1 — higher, 225 to 230 °C
- COC(=O)c1scc(C)c1NC(=S)N1CCN(c2ncnc3cc(OC)c(OC)cc23)CC1 — higher, 113 to 116 °C
- CCOC(=O)C(=O)c1csc(NC(=O)Nc2ccccc2)n1 — higher, 217 to 220 °C
- O=C1CC2c3ccccc3CCN2C2CCCC12 (configuration not stated) — higher, 101 to 102 °C
- CCCCc1cc(-c2ccc(S(N)(=O)=O)cc2)n(-c2ccc(OC)cc2)c1 — higher, 115 to 117 °C
- CC1COC2(CCN(c3nc(=O)c4cc(C#N)cc([N+](=O)[O-])c4s3)CC2)O1 (configuration not stated) — higher, 251 to 253 °C
- O=c1nc(-c2ccccc2)c2cc([N+](=O)[O-])ccc2n1Cc1ccccn1 — higher, 175 to 176 °C
- Oc1nn(Cc2ccccc2)cc1CCCC1OCCO1 — lower, 93 to 94 °C
- Cc1ccc(C)c(NC(=O)N2CCC(c3nc(C4=NOC(c5ccccc5)C4)cs3)CC2)c1 (configuration not stated) — higher, 124 to 127 °C
- O=S1(=O)Cc2ccc(Cl)cc2C(c2ccc(F)cc2)=NN1 — higher, 195 to 198 °C
- Nc1ncnc2c1ncn2OCC(CO)SCP(=O)(O)O (configuration not stated) — higher, 195 to 197 °C
- O=S(=O)(NCCc1ccc(Nc2nnn[nH]2)cc1)c1ccc(Cl)cc1 — higher, 148 to 150 °C
- O=C(CC(c1ccccc1)(c1ccccc1)c1ccccc1)N1CCC(O)(Cc2ccccc2)CC1 — higher, 150 to 166 °C
- CCCCC1(CCCC)CCc2c(OCc3ccc4ccccc4n3)ccc(F)c2C1O (configuration not stated) — higher, 128 to 129 °C
- Cc1ccc(C(=O)C2=C(O)C(=O)N(c3ccc(C)nn3)C2c2cccc(C(F)(F)F)c2)cc1 (configuration not stated) — higher, 232 °C
- NC(=O)CCC(C(=O)O)N1C(=O)c2cccc([N+](=O)[O-])c2C1=O (configuration not stated) — higher, 182 to 184 °C
- O=C1CC(c2cccc3c2OCO3)=Nc2ccc(N3CCOCC3)cc21 — higher, 350 to 352 °C
- Cn1ncnc1COc1nn2c(-c3ccc(F)cc3F)nnc2cc1C1(C)CCCCC1 — higher, 196 °C
- Clc1cc(-c2c(-c3ccccc3)nn3ccccc23)ccn1 — higher, 167 to 168 °C
- COCCOc1cc(N)c(Cl)cc1C(=O)O — higher, 119 to 120 °C
- O=C(Nc1cccnc1Cl)c1ccccc1[N+](=O)[O-] — higher, 160 °C
- NS(=O)(=O)c1ccc(-n2nc(C(F)(F)F)cc2-c2ccc(-c3cscn3)c(C(F)(F)F)c2)cc1F — higher, 140 to 142 °C
- O=Cc1scc2c3ccccc3c3ccccc3c12 — higher, 198 to 199 °C
- CC(O)(C1CCC(Oc2ncnc3ccccc23)CC1)C(F)(F)F (configuration not stated) — higher, 159 to 160 °C
- Cc1ccc(C#N)c(NC(C)C)c1 — lower, 55 to 57 °C
- COc1ccc(-n2cc(C(=O)O)c(C)n2)cc1 — higher, 176 to 178 °C
- COc1nc2cc(Cl)c(Cl)c(-n3c(CN(C)C)nnc3-c3cccnc3)c2nc1OC — higher, 192 to 194 °C
- CCCC(=O)Nc1cccc(-c2ccc3nnc(C)n3n2)c1 — higher, 195 to 198 °C
- O=c1[nH]c2cc(F)ccc2n(C2CCCCC2)c1=O — higher, 290 °C
- CC1(C)OCC(NC2COC(C)(C)OC2)CO1 — lower, 65 °C
- O=C(CCCCc1ccccc1)Nc1ccc(C(=O)O)cc1 — higher, 227 to 230 °C
- COc1ccc(C(=C(c2ccc(OC)cc2)C(F)(F)F)c2ccc(F)cc2)cc1 — lower, 75 to 77 °C
- CC(=O)Nc1nc2ccc(S(=O)(=O)n3c(CCC(=O)O)cc4cc(Cl)ccc43)cc2s1 — higher, > 250 °C
- CCCCc1oc2ccccc2c1C(=O)c1ccc2c(Br)c(OCC(=O)O)ccc2c1 — higher, 163 to 165 °C
- c1ccc2c(c1)nc(N1CCOCC1)c1c(-c3noc(C4CC4)n3)ncn12 — higher, 169 to 173 °C
- CCc1nn(CCO)c(CO)c1Sc1cc(Cl)cc(Cl)c1 — higher, 106 to 108 °C
- Cc1[nH]c(=O)ccc1C(=O)c1ccc(C#N)cc1 — higher, 172 to 175 °C
- CCCCCCCCOc1ccc(-c2ncc(-c3ccc(CCCCCCCC)cc3)cn2)c(F)c1 — lower, 75 °C
- O=C1CCN(C(=O)C(F)(F)F)CC1 — lower, 68 °C
- COC(=O)c1ccc(-n2c(C)nc3cc(C#N)ccc32)cc1 — higher, 179 to 181 °C
